According to patent US20200256877A1, “Microbiota Sequence Variants Of Tumor-Related Antigenic Epitopes” (ENTEROME S.A., priority 2017, published 2020):

Legend:
[1] = test system: splenocytes (IFNγ secretion); assay: ELISPOT-IFNγ on splenocytes of β/A2/DR3 mice vaccinated with IL13RA2 peptides (Example 6); type: in vivo, mouse; conditions: for Percentage of ConA-induced response (mean+/-SEM), ELISPOT-IFNγ: β/A2/DR3 mice vaccinated s.c. d0 and d14 with labelled peptide (100 μg) + HHD-DR3 helper + IFA, d21
Excerpt: Briefly, 14 β/A2/DR3 mice were assigned randomly (based on mouse sex and age) to two experimental groups, each immunized with a specific vaccination peptide (vacc-pAg) combined to a common helper peptide (h-pAg) (as outlined in Table 7 below). The vacc-pAg were compared in couples (group 1 vs. group 2). Thereby, both native and optimized versions of a single peptide were compared in each wave.
(§1) The animals were immunized on day 0 (d0) with a prime injection, and on d14 with a boost injection. Each mouse was injected s.c. at tail base with 100 μL of an oil-based emulsion that contained: • 100 μg of vacc-pAg (25 μL of 4 mg/mL stock per mouse); • 150 μg of h-pAg (15 μL of 10 mg/mL stock per mouse); • 10 μL of PBS to reach a total volume of 50 μL (per mouse); • Incomplete Freund's Adjuvant (IFA) added at 1:1 (v:v) ratio (50 μL per mouse).
Seven days after the boost injection (i.e. on d21), the animals were euthanized and the spleen was harvested. Splenocytes were prepared by mechanical disruption of the organ followed by 70 μm-filtering and Ficoll density gradient purification.
The splenocytes were immediately used in an ELISPOT-IFNγ assay (Table 8). Experimental conditions were repeated in quadruplets, using 2*10^5 total splenocytes per well, and were cultured in presence of vacc-pAg (10 μM), Concanavalin A (ConA, 2.5 μg/mL) or medium-only to assess for their capacity to secrete IFNγ. The commercial ELISPOT-IFNγ kit (Diaclone Kit Mujrine IFNγ ELISpot) was used following the manufacturer's instructions, and the assay was performed after about 16 h of incubation.
Spots were counted on a Grand ImmunoSpot® S6 Ultimate UV Image Analyzer interfaced to the ImmunoSpot 5.4 software (CTL-Europe). Data plotting and statistical analysis were performed with the Prism-5 software (GraphPad Software Inc.).
The data were then normalized as a number of specific spots (the average counts obtained in the ‘medium only’ condition being subtracted) per 10^6 total T cells.
The individual average values (obtained from the quadruplicates) were next used to plot the group average values (see FIG. 3A). As the functional capacity of T cells might vary from individual to individual, the data were also expressed as the percentage of the ConA response per individual (see FIG. 3B).

U87 cells = assay: In vitro cytotoxicity of CD3+ T cells from immunized mice against U87-MG cells (Example 7); type: cell-based, human; conditions: CD3+ T cells of HHD/DR3 mice immunized with labelled peptide, 72 hours co-culture with U87-MG, annexin V/DAPI
Description: Briefly, […] T cells from mice immunized with IL13RA2-H or […] were used. These cells were obtained after sorting of splenocyte from immunized mice and were placed on top of U87 cells (tumor cells expressing IL13RA2).
In more detail, CD3^+ T cells were purified from splenocytes of HHD mice immunized with IL13RA2-H (WLPFGFILI, SEQ ID NO: 1) or IL13RA2-B (FLPFGFILV, SEQ ID NO: 18). To this end, B6 β2m^ko HHD/DR3 mice were injected s.c. at tail base with 100 μL of an oil-based emulsion containing vaccination peptide plus helper peptide plus CFA (complete Freund's adjuvant), at day 0 and day 14 as described in Example 6. On d21, i.e. seven days after the boost injection, the animals were euthanized and the spleen was harvested. Splenocytes were prepared by mechanical disruption of the organ. CD3+ purification was performed using the mouse total T cells isolation kit from Miltenyi biotec using the recommended procedure. Efficient purification of cells and viability was validated by cytometry using appropriate marker for viability, CD8, CD4, CD3, and CD45. […]
72 hours after co-culture of U87-MG cells and CD3+ T cells, all cells from the wells were harvested and specific U87-MG cell death was evaluated after immunostaining of CD45 negative cells with DAPI and fluorescent annexin V followed by cytometry analysis.

[2] = test system: splenocytes (IFNγ secretion); assay: ELISPOT-IFNγ on splenocytes of BALB/c and C57BL/6 mice vaccinated with murine microbiota peptides (Example 16); type: in vivo, mouse; conditions: for T cell responses in the ELISPOT-IFNγ assay (in words): C57BL/6 mice (H2 Db B2) or BALB/c mice (H2 Ld B5), vaccination + OVA 323-339 + IFA, ex vivo stimulation with bacterial peptide; for T cell responses in the ELISPOT-IFNγ assay against the murine reference epitopes (in words): ex vivo stimulation with H2 Db M2 (C57BL/6) or H2 Ld M5 (BALB/c)
Description: Briefly, BALB/c mice and C57BL/6 mice were assigned randomly to two experimental groups for each mouse strain, each group immunized with a specific vaccination peptide (vacc-pAg) combined to a common helper peptide (OVA 323-339 peptide; sequence: ISQAVHAAHAEINEAGR; SEQ ID NO: 164) and Incomplete Freund's Adjuvant (IFA) as shown in Table 23.
as §1
Seven days after the boost injection (i.e. on d21), the animals were euthanized and the spleen was harvested. Splenocytes were prepared by mechanical disruption of the organ followed by 70 μm-filtering and Ficoll density gradient purification. Spleen weight, splenocyte number and viability were immediately assessed (Table 24).
The splenocytes were used in an ELISPOT-IFNγ assay (Table X). Experimental conditions were repeated in quadruplets, using 2*10^5 total splenocytes per well, and were cultured in presence of vacc-pAg (10 μM), mice peptide homolog, positive control (1 ng/ml of Phorbol 12-myristate 13-acetate (PMA) and 500 ng/ml of Ionomycin) or medium-only to assess for their capacity to secrete IFNγ.
The commercial ELISPOT-IFNγ kit (Diaclone Kit Mujrine IFNγ ELISpot) was used following the manufacturer's instructions, and the assay was performed after about 16 h of incubation.
Spots were counted on a Grand ImmunoSpor S6 Ultimate UV Image Analyzer interfaced to the ImmunoSpot 5.4 software (CTL-Europe). Data plotting and statistical analysis were performed with the Prism-5 software (GraphPad Software Inc.).

HLA-A*0201 = molecular target: T1, HLA-A*0201 (Homo sapiens, UniProt P04439, D140Y/D185E/D98H/E176V/E277Q/G131W/G231S/I119V/I121R/I166T/I218V/L300P/L318F/N151K/N90K/P208A/P217A/Q86G/Q94H/R138H/R169H/T345S); assay: In vitro affinity of peptides to HLA-A*0201 on T2 cell line (FACS, anti-HLA-A2 labeling); type: cell-based; conditions: T2 cells; for Mean fluorescence intensity: 16 hours
T1 construct: human tumoral cell T2 which expresses the HLA-A*0201 molecule; endogenous in cells; host or cells: T2 cells (human, TAP1/2 negative)
Excerpt: A method for in vitro testing is well-known to the skilled person. For example, the skilled person may use the experimental protocol as validated for peptides presented by HLA-A*0201 in Tourdot et al., A general strategy to enhance immunogenicity of low-affinity HLA-A2.1-associated peptides: implication in the identification of cryptic tumor epitopes. Eur J Immunol. 2000 December; 30(12):3411-21. In this context, a reference peptide, such as HIV pol 589-597, may be additionally used in the test. This enables calculation of the in vitro affinity relative to the binding observed with the reference peptide, e.g. by the following equation:
Relative affinity=concentration of each peptide inducing 20% of expression of HLA-A*0201/concentration of the reference peptide inducing 20% of expression of HLA-A*0201
(where 100% is the level of HLA-A*0201 expression detected with the reference peptide, e.g. HIV pol 589-597, for example used at a 100 μM concentration).
The experimental protocol is similar to the one that was validated for peptides presented by the HLA-A*0201 (Tourdot et al., A general strategy to enhance immunogenicity of low-affinity HLA-A2.1-associated peptides: implication in the identification of cryptic tumor epitopes. Eur J Immunol. 2000 December; 30(12):3411-21). Affinity measurement of the peptides is achieved with the human tumoral cell T2 which expresses the HLA-A*0201 molecule, but which is TAP1/2 negative and incapable of presenting endogenous peptides.
T2 cells (2.10^5 cells per well) were incubated with decreasing concentrations of peptides from 100 μM to 0.1 μM in a AIMV medium supplemented with 100 ng/μl of human β2m at 37° C. for 16 hours. Cells were then washed two times and marked with the anti-HLA-A2 antibody coupled to PE (clone BB7.2, BD Pharmagen).
The analysis was performed by FACS (Guava Easy Cyte). For each peptide concentration, the geometric mean of the labeling associated with the peptide of interest was subtracted from background noise and reported as a percentage of the geometric mean of the […] labeling obtained for the reference peptide HIV pol 589-597 at a concentration of 100 μM. The relative affinity is then determined as follows:
relative affinity=concentration of each peptide inducing 20% of expression of HLA-A*0201/concentration of the reference peptide inducing 20% of expression of HLA-A*0201.
The experimental protocol, materials and methods correspond to those outlined in Example 4, with the only difference that the above mentioned antigenic peptides were used.
T2 cells (2.10^5 cells per well) were incubated with decreasing concentrations of peptides from 100 μM to 0.1 μM in a AIMV medium supplemented with 100 ng/μl of human β2 m at 37° C. for 16 hours. Cells were then washed two times and marked with the anti-HLA-A2 antibody coupled to PE (clone BB7.2, BD Pharmagen).

[3] = molecular target: T2, HLA-A*0201 molecule on human T2 cells (human); assay: T2 cell HLA-A*0201 binding assay, flow cytometry
T2 construct: MHC class I molecule on T2 cells; also called HLA.A2.01
Description: T2 cells (2.10⁵ cells per well) were incubated with decreasing concentrations of peptides from 100 μM to 0.1 μM in a AIMV medium supplemented with 100 ng/μl of human β2m at 37° C. for 16 hours.
The analysis was performed by FACS (Guava Easy Cyte). […] The relative affinity is then determined as follows:

[4] = ex vivo re-stimulation with IL13RA2-B pAg 10 μM
[5] = ex vivo re-stimulation with IL13RA2-H pAg 10 μM

FLPFGFILV (sequence variant) [SEQ ID NO: 18]
Percentage of ConA-induced response (mean+/-SEM), ELISPOT-IFNγ [1, 4]: 56.3% | Percentage of ConA-induced response (mean+/-SEM), ELISPOT-IFNγ [1, 5]: 32.3% | T cell responses in the ELISPOT-IFNγ assay (in words) ([1]; β/A2/DR3 mice, vaccination, compared to IL13RA2-H-vaccinated animals): induced improved T cell responses | U87 cell lysis (in words) (U87 cells): U87 cell lysis was observed

GAMLVGAVL (Sequence variant) [H2 Db B2, bacterial peptide from microbiota of C57BL/6 mice, variant of Stra6 peptide]
T cell responses in the ELISPOT-IFNγ assay (in words) [2]: induced improved T cell responses | T cell responses in the ELISPOT-IFNγ assay against the murine reference epitopes (in words) [2]: also induced improved T cell responses

KPSVFLLTL (Sequence variant) [H2 Ld B5, bacterial peptide from microbiota of BALB/c mice, variant of Phtf1 peptide]
T cell responses in the ELISPOT-IFNγ assay (in words) [2]: induced improved T cell responses | T cell responses in the ELISPOT-IFNγ assay against the murine reference epitopes (in words) [2]: also induced improved T cell responses

LMDLSTTPL (listed as Homo sapiens) [SEQ ID NO: 59, reference compound]
Concentration inducing 20% of expression of the HLA-A*0201 (HLA-A*0201): 12.6 µM | Binding to HLA-A*0201 (in words) (HLA-A*0201; in vitro): bind | Mean fluorescence intensity (HLA-A*0201; peptide at 3 μM): 0.9 | Mean fluorescence intensity (HLA-A*0201; peptide at 25 μM): 65.4 | Mean fluorescence intensity (HLA-A*0201; peptide at 100 μM): 77.6

WLPFGFILI (listed as Homo sapiens) [SEQ ID NO: 1, reference compound]
Percentage of ConA-induced response (mean+/-SEM), ELISPOT-IFNγ [1, 4]: 2.0% | Percentage of ConA-induced response (mean+/-SEM), ELISPOT-IFNγ [1, 5]: 1.1% | U87 cell lysis (in words) (U87 cells): not

B1: bacterial peptide FOXM1-B2 (SEQ ID NO: 75, LMDLSTTEV) (peptide)
peptide: LMDLSTTEV
notes: also called FOXM1-B2 pAg
concentration inducing 20% of expression of HLA-A*0201 [3]: 6.7 µM

B2: human IL13RA2 reference epitope IL13RA2-H (SEQ ID NO: 1, WLPFGFILI) (peptide)
peptide: WLPFGFILI
notes: 9-mer peptide derived from human IL13RA2; also called IL13RA2-H pAg
concentration inducing 20% of expression of HLA-A*0201 [3]: 100 µM

B3: human FOXM1 reference epitope FOXM1-H2 (SEQ ID NO: 59, LMDLSTTPL) (peptide)
peptide: LMDLSTTPL
notes: 9-mer peptide derived from human FOXM1; also called FOXM1-H2 pAg
concentration inducing 20% of expression of HLA-A*0201 [3]: 12.6 µM

B4: bacterial peptide IL13RA2-B (SEQ ID NO: 18, FLPFGFILV) (peptide)
peptide: FLPFGFILV
notes: 9-mer synthetic peptide; also called IL13RA2-B pAg
concentration inducing 20% of expression of HLA-A*0201 [3]: 4.4 µM
